The values below come from patent US12649751B2 (Arcus Biosciences, Inc., priority 2022, dated 2026).

pIC50: −log10 of the molar value.

This test has as its target HPK1 (Homo sapiens, UniProt Q92918). Put plainly: HPK1 Biochemical Assay (ADP-Glo luminescence; low ATP 10 μM or high ATP 200 μM). The conditions noted are these: 2 nM HPK1, 10 μM ATP; read-out: Biochemical Potency (low ATP).

HPK1, sequence (Q92918 whole entry, species assumed): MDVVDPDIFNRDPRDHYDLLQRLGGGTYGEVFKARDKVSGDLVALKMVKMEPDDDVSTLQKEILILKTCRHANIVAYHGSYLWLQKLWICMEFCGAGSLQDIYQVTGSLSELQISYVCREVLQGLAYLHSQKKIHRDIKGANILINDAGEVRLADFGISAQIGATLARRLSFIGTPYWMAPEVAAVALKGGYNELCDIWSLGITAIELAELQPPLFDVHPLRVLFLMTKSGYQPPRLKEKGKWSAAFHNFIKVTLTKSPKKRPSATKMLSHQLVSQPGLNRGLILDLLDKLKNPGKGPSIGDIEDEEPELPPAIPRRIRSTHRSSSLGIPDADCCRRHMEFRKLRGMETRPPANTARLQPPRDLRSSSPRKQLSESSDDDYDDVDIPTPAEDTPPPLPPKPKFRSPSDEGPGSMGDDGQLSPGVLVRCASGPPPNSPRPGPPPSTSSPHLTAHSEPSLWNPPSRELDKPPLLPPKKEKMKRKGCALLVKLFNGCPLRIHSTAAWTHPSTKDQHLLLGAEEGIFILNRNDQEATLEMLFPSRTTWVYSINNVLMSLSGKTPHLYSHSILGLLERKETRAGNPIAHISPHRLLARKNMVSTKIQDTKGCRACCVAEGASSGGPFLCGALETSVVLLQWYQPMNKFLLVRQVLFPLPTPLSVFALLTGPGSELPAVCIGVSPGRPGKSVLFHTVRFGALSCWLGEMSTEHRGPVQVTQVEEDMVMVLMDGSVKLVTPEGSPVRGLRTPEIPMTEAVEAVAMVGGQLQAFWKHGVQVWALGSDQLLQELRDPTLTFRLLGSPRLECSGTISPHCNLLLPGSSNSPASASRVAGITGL

Turning to `CN1C[C@@H]2C[C@H]1CN2c1nccc(Nc2cc3nc(-c4ncco4)sc3cn2)n1` [Example 157, 2-[(1S,4S)-5-Methyl-2,5-diazabicyclo[2.2.1]heptan-2-yl]-N-[2-(1,3-oxazol-2-yl)-[1,3]thiazolo[5,4-c]pyridin-6-yl]pyrimidin-4-amine], the pIC50 was above 7.00.

For the molecule `Cc1cccnc1-c1nc2cc(Nc3ccnc(N4C[C@@H]5C[C@H]4CN5C)n3)ncc2s1` [Example 158, 2-[(1S,4S)-5-Methyl-2,5-diazabicyclo[2.2.1]heptan-2-yl]-N-[2-(3-methylpyridin-2-yl)-[1,3]thiazolo[5,4-c]pyridin-6-yl]pyrimidin-4-amine], the pIC50 is above 7.00.

As to `Cc1cc(Nc2cc3nc(-c4ncccc4C)sc3cn2)nc(O[C@H]2CCCNC2)c1` [Example 161, 4-Methyl-N-[2-(3-methylpyridin-2-yl)-[1,3]thiazolo[5,4-c]pyridin-6-yl]-6-[(3S)-piperidin-3-yloxy]pyridin-2-amine], the pIC50 is above 7.00.

`Cc1ccc(Nc2cc3nc(-c4ncccc4C)sc3cn2)nc1OC1CCNC1` (centres unmarked) [Example 162, 5-Methyl-N-[2-(3-methylpyridin-2-yl)-[1,3]thiazolo[5,4-c]pyridin-6-yl]-6-(pyrrolidin-3-yloxy)pyridin-2-amine]: the pIC50 is above 7.00.

Consider `Cc1cc(Nc2cc3nc(-c4cccc(C)n4)sc3cn2)nc(O[C@H]2CCNC2)c1` [Example 163, 4-Methyl-N-[2-(6-methylpyridin-2-yl)-[1,3]thiazolo[5,4-c]pyridin-6-yl]-6-[(3S)-pyrrolidin-3-yloxy]pyridin-2-amine], for which the pIC50 is above 7.00.

`Cc1cc(Nc2cc3nc(-c4ccncc4)sc3cn2)nc(O[C@H]2CCNC2)c1` [Example 166, 4-Methyl-N-[2-(pyridin-4-yl)-[1,3]thiazolo[5,4-c]pyridin-6-yl]-6-[(3S)-pyrrolidin-3-yloxy]pyridin-2-amine]: the pIC50 was above 7.00.

`Cc1cc(Nc2cc3nc(-c4ccnc(C)c4)sc3cn2)nc(O[C@H]2CCNC2)c1` [Example 168, 4-Methyl-N-[2-(2-methylpyridin-4-yl)-[1,3]thiazolo[5,4-c]pyridin-6-yl]-6-[(3S)-pyrrolidin-3-yloxy]pyridin-2-amine]: the pIC50 was above 7.00.

As to `Cc1cc(Nc2cc3nc(-c4ccncc4C)sc3cn2)nc(O[C@H]2CCNC2)c1` [Example 169, 4-Methyl-N-[2-(3-methylpyridin-4-yl)-[1,3]thiazolo[5,4-c]pyridin-6-yl]-6-[(3S)-pyrrolidin-3-yloxy]pyridin-2-amine], the pIC50 is above 7.00.

As to `Cc1cc(Nc2cc3nc(-c4ccnc(N)c4)sc3cn2)nc(O[C@H]2CCNC2)c1` [Example 170, N-[2-(2-Aminopyridin-4-yl)-[1,3]thiazolo[5,4-c]pyridin-6-yl]-4-methyl-6-[(3S)-pyrrolidin-3-yloxy]pyridin-2-amine], the pIC50 was above 7.00.

As for `Cc1cc(Nc2cc3nc(-c4ccnc(C)c4)sc3cn2)nc(OC2CNCC2(F)F)c1` (centres unmarked) [Example 171, 6-[(4,4-Difluoropyrrolidin-3-yl)oxy]-4-methyl-N-[2-(2-methylpyridin-4-yl)-[1,3]thiazolo[5,4-c]pyridin-6-yl]pyridin-2-amine], the pIC50 was above 7.00.

As for `Cc1ccncc1-c1nc2cc(Nc3ccc(C)c(O[C@H]4CCNC4)n3)ncc2s1` [Example 173, 5-Methyl-N-[2-(4-methylpyridin-3-yl)-[1,3]thiazolo[5,4-c]pyridin-6-yl]-6-[(3S)-pyrrolidin-3-yloxy]pyridin-2-amine], the pIC50 was above 7.00.

Take `Cc1cc(Nc2cc3nc(-c4ncccc4C)sc3cn2)nc(OC2CCNCC2)c1` [Example 174, 4-Methyl-N-[2-(3-methylpyridin-2-yl)-[1,3]thiazolo[5,4-c]pyridin-6-yl]-6-(piperidin-4-yloxy)pyridin-2-amine]: the pIC50 was above 7.00.

Take `Cc1cc(Nc2cc3nc(-c4cc(C#N)ccc4C)sc3cn2)nc(O[C@H]2CCNC2)c1` [Example 176, 4-Methyl-3-(6-{[4-methyl-6-((3S)-pyrrolidin-3-yloxy)pyridin-2-yl]amino}-[1,3]thiazolo[5,4-c]pyridin-2-yl)benzonitrile]: the pIC50 is above 7.00.

On to `Cc1cc(Nc2cc3nc(-c4cccnc4C)sc3cn2)nc(O[C@H]2CCNC2)c1` [Example 179, 4-Methyl-N-[2-(2-methylpyridin-3-yl)-[1,3]thiazolo[5,4-c]pyridin-6-yl]-6-[(3S)-pyrrolidin-3-yloxy]pyridin-2-amine], for which the pIC50 is above 7.00.

Consider `Cc1cc(Nc2cc3nc(-c4ccnn4C)sc3cn2)nc(O[C@H]2CCNC2)c1` [Example 181, 4-Methyl-N-[2-(1-methyl-1H-pyrazol-5-yl)-[1,3]thiazolo[5,4-c]pyridin-6-yl]-6-[(3S)-pyrrolidin-3-yloxy]pyridin-2-amine], for which the pIC50 was above 7.00.

For the molecule `Cc1cc(Nc2cc3nc(-c4nccn4C)sc3cn2)nc(O[C@H]2CCNC2)c1` [Example 183, 4-Methyl-N-[2-(1-methyl-1H-imidazol-2-yl)-[1,3]thiazolo[5,4-c]pyridin-6-yl]-6-[(3S)-pyrrolidin-3-yloxy]pyridin-2-amine], the pIC50 was above 7.00.

As for `Cc1cc(Nc2cc3nc(C4CCOCC4)sc3cn2)nc(O[C@H]2CCNC2)c1` [Example 184, 4-Methyl-N-[2-(oxan-4-yl)-[1,3]thiazolo[5,4-c]pyridin-6-yl]-6-[(3S)-pyrrolidin-3-yloxy]pyridin-2-amine], the pIC50 was above 7.00.

With `Cc1cc(Nc2cc3nc(-c4cc5n(n4)CC(=O)N(C(C)C)CC5)sc3cn2)nc(O[C@H]2CCNC2)c1` [Example 185, 2-(6-{[4-Methyl-6-((3S)-pyrrolidin-3-yloxy)pyridin-2-yl]amino}-[1,3]thiazolo[5,4-c]pyridin-2-yl)-6-(propan-2-yl)-4H,5H,6H,7H,8H-pyrazolo[1,5-d][1,4]diazepin-7-one], the pIC50 is 6.00 to 7.00.

Consider `Cc1cc(Nc2cc3nc(-c4ccc(S(C)(=O)=O)cc4)sc3cn2)nc(O[C@H]2CCNC2)c1` [Example 186, N-[2-(4-Methanesulfonylphenyl)-[1,3]thiazolo[5,4-c]pyridin-6-yl]-4-methyl-6-[(3S)-pyrrolidin-3-yloxy]pyridin-2-amine], for which the pIC50 is above 7.00.

In the case of `Cc1cc(Nc2cc3nc(-c4ccc(C#N)cc4)sc3cn2)nc(O[C@H]2CCNC2)c1` [Example 187, 4-(6-{[4-Methyl-6-(pyrrolidin-3-yloxy)pyridin-2-yl]amino}-[1,3]thiazolo[5,4-c]pyridin-2-yl)benzonitrile], the pIC50 was above 7.00.

On to `Cc1cc(Nc2cc3nc(-c4ccc(F)cc4)sc3cn2)nc(O[C@H]2CCNC2)c1` [Example 188, N-[2-(4-Fluorophenyl)-[1,3]thiazolo[5,4-c]pyridin-6-yl]-4-methyl-6-[(3S)-pyrrolidin-3-yloxy]pyridin-2-amine], for which the pIC50 is above 7.00.

Turning to `Cc1cc(Nc2cc3nc(N4CCC(O)CC4)sc3cn2)nc(O[C@H]2CCNC2)c1` [Example 189, 1-(6-{[4-Methyl-6-((3S)-pyrrolidin-3-yloxy)pyridin-2-yl]amino}-[1,3]thiazolo[5,4-c]pyridin-2-yl)piperidin-4-ol], the pIC50 is above 7.00.

`COC1CCN(c2nc3cc(Nc4cc(C)cc(O[C@H]5CCNC5)n4)ncc3s2)CC1` [Example 190, N-[2-(4-Methoxypiperidin-1-yl)-[1,3]thiazolo[5,4-c]pyridin-6-yl]-4-methyl-6-((3S)-pyrrolidin-3-yloxy)pyridin-2-amine]: the pIC50 was above 7.00.

On to `Cc1cc(Nc2cc3nc(N4CCOCC4)sc3cn2)nc(O[C@H]2CCNC2)c1` [Example 191, 4-Methyl-N-[2-(morpholin-4-yl)-[1,3]thiazolo[5,4-c]pyridin-6-yl]-6-((3S)-pyrrolidin-3-yloxy)pyridin-2-amine], for which the pIC50 is above 7.00.

Regarding `Cc1cc(Nc2cc3nc(N4CCC[C@H](O)C4)sc3cn2)nc(O[C@H]2CCNC2)c1` [Example 192, (3S)-1-(6-{[4-Methyl-6-((3S)-pyrrolidin-3-yloxy)pyridin-2-yl]amino}-[1,3]thiazolo[5,4-c]pyridin-2-yl)piperidin-3-ol], the pIC50 is above 7.00.

For the molecule `Cc1cc(Nc2cc3nc(N4CCC[C@@H](O)C4)sc3cn2)nc(O[C@H]2CCNC2)c1` [Example 193, (3R)-1-(6-{[4-Methyl-6-((3S)-pyrrolidin-3-yloxy)pyridin-2-yl]amino}-[1,3]thiazolo[5,4-c]pyridin-2-yl)piperidin-3-ol], the pIC50 was above 7.00.

For `Cc1ccn(-c2nc3cc(Nc4ccc(N5CCOCC5)c(CN5CCCC5)n4)ncc3s2)n1` [Example 195, N-[2-(3-Methyl-1H-pyrazol-1-yl)-[1,3]thiazolo[5,4-c]pyridin-6-yl]-5-(morpholin-4-yl)-6-[(pyrrolidin-1-yl)methyl]pyridin-2-amine], the pIC50 is above 7.00.

For `Cc1cc(C)n(-c2nc3cc(Nc4ccc(N5CCOCC5)c(CN5CCCC5)n4)ncc3s2)n1` [Example 196, N-[2-(3,5-Dimethyl-1H-pyrazol-1-yl)-[1,3]thiazolo[5,4-c]pyridin-6-yl]-5-(morpholin-4-yl)-6-[(pyrrolidin-1-yl)methyl]pyridin-2-amine], the pIC50 was above 7.00.

With `Cc1ccc(Nc2cc3nc(-n4nccc4C)sc3cn2)nc1CN[C@@H]1CCOC1` [Example 199, 5-Methyl-N-[2-(5-methyl-1H-pyrazol-1-yl)-[1,3]thiazolo[5,4-c]pyridin-6-yl]-6-({[(3R)-oxolan-3-yl]amino}methyl)pyridin-2-amine], the pIC50 is above 7.00.

`Cc1ccc(Nc2cc3nc(-n4nccc4C)sc3cn2)nc1N1C[C@@H](N)C[C@H]1CO` [Example 201, [(2S,4S)-4-Amino-1-(3-methyl-6-{[2-(5-methyl-1H-pyrazol-1-yl)-[1,3]thiazolo[5,4-c]pyridin-6-yl]amino}pyridin-2-yl)pyrrolidin-2-yl]methanol]: the pIC50 is above 7.00.

Consider `Cc1ccc(Nc2cc3nc(-n4nccc4C)sc3cn2)nc1N1CC[C@H](O)C1` [Example 202, (3S)-1-(3-Methyl-6-{[2-(5-methyl-1H-pyrazol-1-yl)-[1,3]thiazolo[5,4-c]pyridin-6-yl]amino}pyridin-2-yl)pyrrolidin-3-ol], for which the pIC50 is 6.00 to 7.00.

Turning to `Cc1ccc(Nc2cc3nc(-n4nccc4C)sc3cn2)nc1N1CCN(CCO)CC1` [Example 203, 2-[4-(3-Methyl-6-{[2-(5-methyl-1H-pyrazol-1-yl)-[1,3]thiazolo[5,4-c]pyridin-6-yl]amino}pyridin-2-yl)piperazin-1-yl]ethan-1-ol], the pIC50 is 6.00 to 7.00.
